# Reference: patent publication US20170319552A1, “ATROPISOMERS OF TRIAZOLE DERIVATIVE” (ARDEA BIOSCIENCES, INC., priority 2016, published 2017)
# Like-named read-outs stand apart in the source and are kept apart here.
# What was measured:
# [1] = In vivo human metabolism, plasma and urine pharmacokinetics after single oral dose of racemic Compound (I)
# Method: Plasma samples were collected prior to dosing (within 30 minutes before dosing) and at the following timepoints: 0.5, 1, 1.5, 2, 3, 4, 5, 6, 8, 10, 12, and 24 hours postdose. Urine was also collected. […] The supernatant was diluted with injection solvent and analyzed by HPLC with tandem mass spectrometry (LC/MS/MS). […] The calibration curves were linear over the concentration range between 5.00 ng/mL and 2000 ng/mL with a lower limit of quantification (LLOQ) of 5.00 ng/mL.
# Using the above data, the following plasma pharmacokinetic parameters were calculated using validated Phoenix WinNonlin, version 6.3 (Pharsight Corporation, Mountain View, Calif.) and are shown (geometric mean 95% CI) in tables 11, 12, and 13 below.
# • Cmax: Maximum observed concentration (μg/mL) • Tmax: Time of occurrence of maximum observed concentration (hr) • AUC0-24: Area under plasma concentration-vs-time curve, from time 0 to 24 hours postdose (μg·hr/mL) • C24: Concentration 24 hours post dose (μg/mL) • t1/2: Apparent terminal half-life (hr)
# Solubility in water = assay type: physicochemical
# [2] = Atropisomer interconversion, thermal challenge in organic solvent (acetonitrile); assay type: physicochemical
# Method: (§1) The individual atropisomers of Compound (I), atropisomer 1 and atropisomer 2 (elution order from normal-phase chiral chromatography) were exposed to various conditions, including thermal challenge in both organic and aqueous media and exposure to simulated biological conditions, to ascertain whether they readily interconvert.
# Samples of each separate atropisomers were held at 60° C. for four days and then analyzed by high performance liquid chromatography (AGMS02 Agilent 1100) on a normal phase amylose-based chiral column (ChiralPak IA-3, 3 μm, 100×4.6 mm, column 244), using isocratic elution and UV detection at 226 nm (see example 1).
# human URAT1 transporter = biological target: T1, human URAT1 transporter (Homo sapiens, UniProt Q96S37); assay: HEK293 hURAT1 stable cell-line uric acid uptake assay; assay type: cell-based; details: from IC50 values of table 5
# T1 sequence (Q96S37 1-553): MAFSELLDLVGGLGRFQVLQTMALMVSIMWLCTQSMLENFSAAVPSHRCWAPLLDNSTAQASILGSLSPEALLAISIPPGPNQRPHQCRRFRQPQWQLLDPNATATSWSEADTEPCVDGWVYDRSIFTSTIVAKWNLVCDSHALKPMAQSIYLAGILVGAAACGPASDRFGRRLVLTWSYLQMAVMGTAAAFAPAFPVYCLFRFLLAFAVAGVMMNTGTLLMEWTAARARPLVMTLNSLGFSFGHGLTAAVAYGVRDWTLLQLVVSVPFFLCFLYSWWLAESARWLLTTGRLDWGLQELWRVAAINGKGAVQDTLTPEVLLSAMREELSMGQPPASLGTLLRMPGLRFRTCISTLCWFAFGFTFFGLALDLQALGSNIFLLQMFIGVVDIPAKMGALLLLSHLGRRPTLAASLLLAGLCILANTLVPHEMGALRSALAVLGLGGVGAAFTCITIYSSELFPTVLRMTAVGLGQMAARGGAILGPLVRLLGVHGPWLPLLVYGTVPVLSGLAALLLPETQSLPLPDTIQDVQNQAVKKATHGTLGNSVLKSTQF
# Description: Generation and Screening of HEK293 Stable Cell Lines—HEK293 human embryonic kidney cells (ATCC #CRL-1573, Manassas, Va.) were propagated in EMEM tissue culture medium as described by ATCC in an atmosphere of 5% CO2 and 95% air. HEK293 cells were transfected with the expression plasmids described above (pCMV6-neo URAT1 or pCMV6-neo OAT4) using Lipofectamine 2000 (Invitrogen, Carlsbad, Calif.), according to the manufacturer's instructions. The lipid/DNA transfection mixture was removed after five hours on the cells and fresh growth medium was added. After another 24 hr the cells were split into 10 cm plates. The next day G418 (Gibco, Carlsbad, Calif.) selection agent was added to the growth medium at a final concentration of 0.5 mg/ml. Fresh G418-containing medium was added every three days until drug-resistant colonies were obtained and also when the majority of mock-transfected cells were dead. […]
# HEK293 hURAT 1 Stable Cell-Line Uric Acid Uptake Assay—Cells were seeded onto 96-well poly-D-lysine coated tissue culture plates at a density of 1.25×10^5 cells per well and grown at 37° C. overnight. […] Cells were lysed by adding 150 μl of MicroScint 20 scintillation fluid (PerkinElmer) to each well and radioactivity was counted the following day using a Beckman TopCount plate reader.
# Calculation—The IC50 was calculated using Sigmoidal Dose-Response Model using XLFIT(IDBS, Alameda, Calif.).
# [3] = In vitro metabolism, incubations with human liver microsomes; assay type: in vitro ADME
# Method: Human liver microsomes (0.5 mg/mL; mixed gender, ultrapooled, BD Biosciences, catalog number 452117) were incubated at 37±1° C. in 0.2 mL (final volume) of incubation mixtures containing potassium phosphate buffer (100 mM, pH7.4), MgCl2 (3 mM), NADPH (1 mM), and the atropisomers (1, 10, or 50 μM) (all experiments performed in duplicate). Stock solutions of atropisomers were prepared with DMSO at 100 mM. The final concentration of DMSO in the incubation was at or less than 0.05%. Reactions were initiated by addition of NADPH solution and terminated at predetermined time point (30 min) by addition of stop reagent (300 μL chilled acetonitrile containing 0.1 μM of 7-hydroxycoumarin as an internal standard). After incubation, microsomal proteins were precipitated by centrifugation at 3300×g for 15 min at 4° C. Supernatant fractions were analyzed by LC-MS/MS.
# HPLC mass spectrometer system: An API4000 triple quadrupole mass spectrometer equipped with electrospray ionization ion source was used for quantitation and operated in positive mode. The HPLC system consisted of a CTC Analytics PAL autosampler, an Agilent 1100 series degasser (G1379A), and an Agilent 1100 series binary pump (G1312A). […]
# The formation of M3, M3c, M4 and M6 from each atropisomer in liver microsomal and recombinant CYP incubations was determined, based on the peak area ratio of analyte over internal standard (IS)
# [4] = Atropisomer interconversion, thermal challenge in aqueous solvent (dilute sodium bicarbonate); assay type: physicochemical
# Method: as §1
# Atropisomer 1 was dissolved in dilute aqueous sodium bicarbonate solution. Atropisomer 2 was dissolved in dilute aqueous sodium bicarbonate solution. […] Samples of the resulting solutions were exposed to room temperature (rt), 60° C., and 100° C. for four days. After four days, the samples were concentrated to dryness (SpeedVac evaporator—DNA120, property H001630), redissolved in acetonitrile and analyzed by high performance liquid chromatography (AGMS02 Agilent 1100) on a normal phase amylose-based chiral column (ChiralPak IA-3, 3 μm, 100×4.6 mm, column 244), using isocratic elution and UV detection at 226 nm (see example 1). […] Sample chromatograms at t0, 60° C., and 100° C. after four days, are depicted in FIG. 3A, FIG. 3B and FIG. 3C respectively.
# [5] = plasma, geometric mean, single oral 400 mg racemic Compound (I), human
# [6] = Plasma Concentration (Mean), single oral 400 mg racemic Compound (I), human
# [7] = Urine PK Parameters (Geometric mean, CI 95%), single oral 400 mg racemic Compound (I), human
structure (smiles),measurement,setting,value
"O=C(O)CSc1nnc(Br)n1-c1ccc(C2CC2)c2ccccc12 (racemic) [Compound (I), 2-(5-bromo-4-(4-cyclopropylnaphthalen-1-yl)-4H-1,2,4-triazol-3-ylthio)acetic acid]",concentration at 0.5 h,"[1]; male, human, plasma, po, 400 mg, 0.5 hr postdose, single oral 400 mg Compound (I) racemic mixture, adult male subjects",157 ng/mL
same,concentration at 1 h,"[1]; male, human, plasma, po, 400 mg, 1 hr postdose, single oral 400 mg Compound (I) racemic mixture, adult male subjects",3900 ng/mL
same,concentration at 1.5 h,"[1]; male, human, plasma, po, 400 mg, 1.5 hr postdose, single oral 400 mg Compound (I) racemic mixture, adult male subjects",7860 ng/mL
same,concentration at 2 h,"[1]; male, human, plasma, po, 400 mg, 2 hr postdose, single oral 400 mg Compound (I) racemic mixture, adult male subjects",9380 ng/mL
same,concentration at 3 hr,"[1]; male, human, plasma, po, 400 mg, 3 hr postdose, single oral 400 mg Compound (I) racemic mixture, adult male subjects",11400 ng/mL
same,concentration at 4 hr,"[1]; male, human, plasma, po, 400 mg, 4 hr postdose, single oral 400 mg Compound (I) racemic mixture, adult male subjects",9080 ng/mL
same,concentration at 5 hr,"[1]; male, human, plasma, po, 400 mg, 5 hr postdose, single oral 400 mg Compound (I) racemic mixture, adult male subjects",6980 ng/mL
same,concentration at 6 hr,"[1]; male, human, plasma, po, 400 mg, 6 hr postdose, single oral 400 mg Compound (I) racemic mixture, adult male subjects",3810 ng/mL
same,concentration at 8 hr,"[1]; male, human, plasma, po, 400 mg, 8 hr postdose, single oral 400 mg Compound (I) racemic mixture, adult male subjects",1530 ng/mL
same,concentration at 10 hr,"[1]; male, human, plasma, po, 400 mg, 10 hr postdose, single oral 400 mg Compound (I) racemic mixture, adult male subjects",815 ng/mL
same,concentration at 12 hr,"[1]; male, human, plasma, po, 400 mg, 12 hr postdose, single oral 400 mg Compound (I) racemic mixture, adult male subjects",503 ng/mL
same,concentration at 24 h,"[1]; male, human, plasma, po, 400 mg, 24 hr postdose, single oral 400 mg Compound (I) racemic mixture, adult male subjects",84 ng/mL
same,AUC(0-t),"[1]; male, human, plasma, po, 400 mg, Plasma Concentration (Mean), single oral 400 mg racemic Compound (I), human, read-out: AUC0-24",54900 ng·h/mL
same,Cmax,"[1]; male, human, plasma, po, 400 mg, Plasma Concentration (Mean), single oral 400 mg racemic Compound (I), human, read-out: Cmax",13500 ng/mL
same,Cmax,"[1]; male, human, plasma, po, 400 mg, plasma, geometric mean, single oral 400 mg racemic Compound (I), human, read-out: Cmax: Maximum observed concentration",12800 ng/mL
same,half-life,"[1]; male, human, plasma, po, 400 mg, plasma, geometric mean, single oral 400 mg racemic Compound (I), human, read-out: t1/2: Apparent terminal half-life (converted)",4.18 h
same,concentration at 0 h,"[1]; male, human, plasma, po, 400 mg, time 0 hr (prior to dosing), single oral 400 mg Compound (I) racemic mixture, adult male subjects",0 ng/mL
same,Tmax,"[1]; male, human, plasma, po, 400 mg, read-out: Tmax: Time of occurrence of maximum observed concentration",3 h
same,"AUC0-24: Area under plasma concentration-vs-time curve, from time 0 to 24 hours postdose",[1]; [5],52.9 µg·h/mL
same,Solubility in water,Solubility in water,low
"O=C(O)CSc1nnc(Br)n1-c1ccc(C2CC2)c2ccccc12 (single isomer, unassigned) [Atropisomer 2, (+)-2-(5-bromo-4-(4-cyclopropylnaphthalen-1-yl)-4H-1,2,4-triazol-3-ylthio)acetic acid]",Mean plasma concentration,"[1]; 0.5 hr postdose, single oral 400 mg Compound (I) racemic mixture, adult male subjects",108 ng/mL
same,Mean plasma concentration,"[1]; 1 hr postdose, single oral 400 mg Compound (I) racemic mixture, adult male subjects",2573 ng/mL
same,Mean plasma concentration,"[1]; 1.5 hr postdose, single oral 400 mg Compound (I) racemic mixture, adult male subjects",4975 ng/mL
same,Mean plasma concentration,"[1]; 2 hr postdose, single oral 400 mg Compound (I) racemic mixture, adult male subjects",5765 ng/mL
same,Mean plasma concentration,"[1]; 3 hr postdose, single oral 400 mg Compound (I) racemic mixture, adult male subjects",6921 ng/mL
same,Mean plasma concentration,"[1]; 4 hr postdose, single oral 400 mg Compound (I) racemic mixture, adult male subjects",5577 ng/mL
same,Mean plasma concentration,"[1]; 5 hr postdose, single oral 400 mg Compound (I) racemic mixture, adult male subjects",4314 ng/mL
same,Mean plasma concentration,"[1]; 6 hr postdose, single oral 400 mg Compound (I) racemic mixture, adult male subjects",2322 ng/mL
same,Mean plasma concentration,"[1]; 8 hr postdose, single oral 400 mg Compound (I) racemic mixture, adult male subjects",918 ng/mL
same,Mean plasma concentration,"[1]; 10 hr postdose, single oral 400 mg Compound (I) racemic mixture, adult male subjects",495 ng/mL
same,Mean plasma concentration,"[1]; 12 hr postdose, single oral 400 mg Compound (I) racemic mixture, adult male subjects",309 ng/mL
same,Mean plasma concentration,"[1]; 24 hr postdose, single oral 400 mg Compound (I) racemic mixture, adult male subjects",63 ng/mL
same,AUC0-24,[1]; [6],33800 ng·h/mL
same,Cmax,[1]; [6],8200 ng/mL
same,Ae0-24,[1]; [7],101 mg
same,CLR0-24,[1]; [7],51.6 mL/min
same,"AUC0-24: Area under plasma concentration-vs-time curve, from time 0 to 24 hours postdose",[1]; [5],32.7 µg·h/mL
same,C24 h: Concentration 24 hours post dose,[1]; [5],50.8 ng/mL
same,Cmax: Maximum observed concentration,[1]; [5],7920 ng/mL
same,t1/2: Apparent terminal half-life,[1]; [5],4.67 h
same,Tmax: Time of occurrence of maximum observed concentration,"[1]; plasma, single oral 400 mg racemic Compound (I), human",3.00 h
same,Mean plasma concentration,"[1]; time 0 hr (prior to dosing), single oral 400 mg Compound (I) racemic mixture, adult male subjects",0 ng/mL
same,% Atropisomer 1,"[2]; acetonitrile 0.25 mg/mL, t0",1.0%
same,% Atropisomer 2,"[2]; acetonitrile 0.25 mg/mL, t0",99.0%
same,% Atropisomer 1,"[2]; acetonitrile, 60° C. 4 days",1.0%
same,% Atropisomer 2,"[2]; acetonitrile, 60° C. 4 days",99.0%
same,Greater inhibition of URAT1 than atropisomer 1,human URAT1 transporter,approximately 4 fold
same,M3c formation,[3],only trace levels
same,% Atropisomer 1,[4]; 60° C. 4 days,0.4%
same,% Atropisomer 2,[4]; 60° C. 4 days,99.6%
same,% Atropisomer 1,[4]; 100° C. 4 days,0.6%
same,% Atropisomer 2,[4]; 100° C. 4 days,99.4%
same,% Atropisomer 1,"[4]; rt, 4 days",0.4%
same,% Atropisomer 2,"[4]; rt, 4 days",99.6%
same,% Atropisomer 1,[4]; t0 (control),0.4%
same,% Atropisomer 2,[4]; t0 (control),99.6%
